Values after ≈ are worked out from the molar mass of the structure shown. Active and inactive are the calls of the source. The rule behind the calls is not given here. Positions of bridges follow the written chain, without caps; N, C: chain ends. Non-standard residues stand in square brackets, D forms with d. Residues, ends and D or L forms follow the SMILES beside them. *: point of attachment. X1 = CC[C@H](C)CCCCC(=O)*; Dab = NCC[C@H](N)C(=O)O
Experiments:
[1] = tested on: Staphylococcus aureus; test: Antibacterial activity against methicillin susceptible Staphylococcus aureus ATCC 29213 after 16 to 18 hrs by CLSI-based microbroth dilution method; type: functional; conditions: time 16-18 hrs
[2] = tested on: Staphylococcus aureus; test: Antibacterial activity against methicillin resistant Staphylococcus aureus ATCC 33591 after 16 to 18 hrs by CLSI-based microbroth dilution method; type: functional; conditions: time 16-18 hrs
[3] = tested on: Staphylococcus aureus; test: Antibacterial activity against methicillin resistant Staphylococcus aureus ATCC S-28 after 16 to 18 hrs by CLSI-based microbroth dilution method; type: functional; conditions: time 16-18 hrs
[4] = tested on: Staphylococcus aureus; test: Antibacterial activity against methicillin resistant Staphylococcus aureus S-30 after 16 to 18 hrs by CLSI-based microbroth dilution method; type: functional; conditions: time 16-18 hrs
[5] = tested on: Staphylococcus aureus; test: Antibacterial activity against methicillin resistant Staphylococcus aureus S-33 after 16 to 18 hrs by CLSI-based microbroth dilution method; type: functional; conditions: time 16-18 hrs
[6] = tested on: Staphylococcus aureus; test: Antibacterial activity against methicillin resistant Staphylococcus aureus S-34 after 16 to 18 hrs by CLSI-based microbroth dilution method; type: functional; conditions: time 16-18 hrs
[7] = tested on: Staphylococcus aureus; test: Antibacterial activity against methicillin resistant Staphylococcus aureus S-37 after 16 to 18 hrs by CLSI-based microbroth dilution method; type: functional; conditions: time 16-18 hrs
[8] = tested on: Staphylococcus aureus; test: Antibacterial activity against methicillin resistant Staphylococcus aureus S-41 after 16 to 18 hrs by CLSI-based microbroth dilution method; type: functional; conditions: time 16-18 hrs
[9] = tested on: Escherichia coli; test: Antibacterial activity against Escherichia coli ATCC 25922 after 16 to 18 hrs by CLSI-based microbroth dilution method; type: functional; conditions: time 16-18 hrs
[10] = tested on: Escherichia coli; test: Antibacterial activity against Escherichia coli ATCC 11775 after 16 to 18 hrs by CLSI-based microbroth dilution method; type: functional; conditions: time 16-18 hrs
[11] = tested on: Escherichia coli; test: Antibacterial activity against Escherichia coli E-52 after 16 to 18 hrs by CLSI-based microbroth dilution method; type: functional; conditions: time 16-18 hrs
[12] = tested on: Escherichia coli; test: Antibacterial activity against Escherichia coli E-59 after 16 to 18 hrs by CLSI-based microbroth dilution method; type: functional; conditions: time 16-18 hrs
[13] = tested on: Escherichia coli; test: Antibacterial activity against Escherichia coli E-74 after 16 to 18 hrs by CLSI-based microbroth dilution method; type: functional; conditions: time 16-18 hrs
[14] = Hemolytic activity in mouse RBC at 75 ug/ml after 1 hr by microplate reader analysis relative to control; type: ADME, cell-based, Erythrocyte; conditions: mouse red blood cells (erythrocytes), at 75 µg/mL, read-out: Activity
[15] = Hemolytic activity in mouse RBC at 150 ug/ml after 1 hr by microplate reader analysis relative to control; type: ADME, cell-based, Erythrocyte; conditions: mouse red blood cells (erythrocytes), at 150 µg/mL, read-out: Activity
[16] = Cytotoxicity against mouse 3T3 cells assessed as reduction in cell viability at 75 ug/ml after 4 hrs by MTT assay (reference value: 90.42 +/- 0.03%); type: cell-based; conditions: 3t3, 4 h, at 75 µg/mL
[17] = Cytotoxicity against mouse 3T3 cells assessed as reduction in cell viability at 150 ug/ml after 4 hrs by MTT assay (reference value: 90.42 +/- 0.03%); type: cell-based; conditions: at 150 µg/mL, read-out: Activity
[18] = tested on: Cell membrane; test: Induction of cytoplasmic membrane depolarization in methicillin resistant Staphylococcus aureus ATCC 33591 at 5 times MIC by [DiSC3(5)] probe based fluorescence assay relative to control; type: subcellular; conditions: time 2.0 hrs
[19] = tested on: Cell membrane; test: Induction of cytoplasmic membrane permeabilization in Staphylococcus aureus ATCC 33591 at 5 times MIC measured after 2 min using calcein-AM as substrate by dye based fluorescence assay relative to control; type: subcellular
[20] = tested on: Cell membrane; test: Induction of cell membrane damage in Staphylococcus aureus ATCC 33591 at 5 times MIC assessed as loss of cell viability measured after 2 hrs by confocal microscopy
[21] = tested on: Cell membrane; test: Induction of cell membrane damage in Staphylococcus aureus ATCC 33591 assessed as membrane surface perturbation with multiple dent and bleb formation at 5 times MIC after 4 hrs by scanning electron microscopy; type: subcellular
[22] = tested on: Staphylococcus aureus; test: Bactericidal activity against methicillin-resistant Staphylococcus aureus assessed as complete bacterial killing at 5 times MIC measured after 6 hrs by time-kill assay; type: functional, organism-based
[23] = tested on: Cell membrane; test: Induction of cytoplasmic membrane permeabilization in Staphylococcus aureus ATCC 33591 at 5 times MIC measured after 120 min using calcein-AM as substrate by dye based fluorescence assay relative to control; type: subcellular
[24] = tested on: Staphylococcus aureus; test: Antibacterial activity against methicillin susceptible Staphylococcus aureus ATCC 29213 infected in mouse 3T3 cells assessed as bacterial load at 5 times MIC after 16 hrs (reference value: 6.6 log CFU/ml); type: functional
[25] = tested on: Staphylococcus aureus; test: Bactericidal activity against methicillin-resistant Staphylococcus aureus assessed as in viable cells at 5 times MIC measured after 1 hr by time-kill assay; type: functional
[26] = tested on: Staphylococcus aureus; test: Bactericidal activity against methicillin-resistant Staphylococcus aureus assessed as reduction in viable count at 5 times MIC measured upto 4 hrs by time-kill assay; type: functional; conditions: time hrs <=4

Compound	MIC [1]	MIC [2]	MIC [3]	MIC [4]	MIC [5]	MIC [6]	MIC [7]	MIC [8]	MIC [9]	MIC [10]	MIC [11]	MIC [12]	MIC [13]	hemolysis at 1 h, 75 ug/ml [14]	hemolysis at 1 h, 150 ug/ml [15]	Activity [16]	viability at 4 h, 150 ug/ml [17]	Activity [18]	Activity [19]	Activity [20]	other results
Cc1onc(-c2ccccc2)c1C(=O)N[C@@H]1C(=O)N2[C@@H]1SC(C)(C)[C@@H]2C(=O)O [OXACILLIN]	0.5 µg/mL (≈ 1.25 µM)	64 µg/mL (≈ 159 µM)	128 µg/mL (≈ 319 µM)	128 µg/mL (≈ 319 µM)	128 µg/mL (≈ 319 µM)	128 µg/mL (≈ 319 µM)	128 µg/mL (≈ 319 µM)	128 µg/mL (≈ 319 µM)	–	–	–	–	–	–	–	–	–	–	–	–	–
COc1cc(/C=C2\CC/C(=C\c3ccc(OCCCN4CCCCCC4)c(OC)c3)C2=O)ccc1OCCCN1CCCCCC1.Cl.Cl	2 µg/mL	4 µg/mL	8 µg/mL	8 µg/mL	8 µg/mL	8 µg/mL	8 µg/mL	8 µg/mL	16 µg/mL	16 µg/mL	32 µg/mL	32 µg/mL	32 µg/mL	6.19%	9.32%	7.03%	14.8%	95.7%	80.6%	Active	Activity [21]: Active; Activity [22]: Active; Activity [23]: 93.2%; Activity [24]: 3.91 log10CFU/ml
COc1cc(/C=C2\CC/C(=C\c3ccc(OCCCCN4CCCCCC4)c(OC)c3)C2=O)ccc1OCCCCN1CCCCCC1.Cl.Cl	2 µg/mL	4 µg/mL	8 µg/mL	8 µg/mL	8 µg/mL	16 µg/mL	16 µg/mL	8 µg/mL	16 µg/mL	16 µg/mL	32 µg/mL	32 µg/mL	32 µg/mL	6.19%	9.32%	7.03%	14.8%	90.7%	69.7%	Active	Activity [21]: Active; Activity [23]: 89%; Activity [24]: 3.23 log10CFU/ml
CCOc1cc(/C=C2\CC/C(=C\c3ccc(OCCCN4CCCC(C)C4)c(OCC)c3)C2=O)ccc1OCCCN1CCCC(C)C1.Cl.Cl (stereo not given)	2 µg/mL	4 µg/mL	8 µg/mL	8 µg/mL	8 µg/mL	8 µg/mL	8 µg/mL	8 µg/mL	8 µg/mL	8 µg/mL	16 µg/mL	32 µg/mL	32 µg/mL	6.19%	9.32%	7.03%	14.8%	87%	60.2%	Active	Activity [25]: -3.4 log10CFU/ml; Activity [21]: Active; Activity [23]: 92.7%; Activity [24]: 3.99 log10CFU/ml
COc1cc(/C=C/C(=O)CC(=O)/C=C/c2ccc(O)c(OC)c2)ccc1O [CURCUMIN]	> 256 µg/mL	> 256 µg/mL	–	–	–	–	–	–	–	–	–	–	–	–	–	–	–	–	–	–	–
Cl.Cl.O=C1/C(=C/c2ccc(OCCCCN3CCCCCC3)cc2)CC/C1=C\c1ccc(OCCCCN2CCCCCC2)cc1	4 µg/mL	4 µg/mL	4 µg/mL	4 µg/mL	8 µg/mL	8 µg/mL	8 µg/mL	8 µg/mL	16 µg/mL	16 µg/mL	16 µg/mL	32 µg/mL	32 µg/mL	6.19%	9.32%	7.03%	14.8%	95.7%	76.6%	Active	Activity [21]: Active; Activity [26]: 4.3 log10CFU/ml; Activity [23]: 90.3%; Activity [24]: 3 log10CFU/ml
CC[C@H](C)CCCCC(=O)N[C@@H](CCN)C(=O)N[C@H](C(=O)N[C@@H](CCN)C(=O)N[C@H]1CCNC(=O)[C@H]([C@@H](C)O)NC(=O)[C@H](CCN)NC(=O)[C@H](CCN)NC(=O)[C@H](CC(C)C)NC(=O)[C@@H](Cc2ccccc2)NC(=O)[C@H](CCN)NC1=O)[C@@H](C)O (X1-[Dab]T[Dab][Dab][Dab][dF]L[Dab][Dab]T; lactam 4-C)	–	–	–	–	–	–	–	–	0.5 µg/mL (≈ 0.415 µM)	0.5 µg/mL (≈ 0.415 µM)	1 µg/mL (≈ 0.831 µM)	1 µg/mL (≈ 0.831 µM)	1 µg/mL (≈ 0.831 µM)	–	–	–	–	–	–	–	–
CN[C@H](CC(C)C)C(=O)N[C@H]1C(=O)N[C@@H](CC(N)=O)C(=O)N[C@H]2C(=O)N[C@H]3C(=O)N[C@H](C(=O)N[C@H](C(=O)O)c4cc(O)cc(O)c4-c4cc3ccc4O)[C@H](O)c3ccc(c(Cl)c3)Oc3cc2cc(c3O[C@@H]2O[C@H](CO)[C@@H](O)[C@H](O)[C@H]2O[C@H]2C[C@](C)(N)[C@H](O)[C@H](C)O2)Oc2ccc(cc2Cl)[C@H]1O [VANCOMYCIN]	–	–	–	–	–	–	–	–	64 µg/mL (≈ 44.2 µM)	64 µg/mL (≈ 44.2 µM)	128 µg/mL (≈ 88.3 µM)	128 µg/mL (≈ 88.3 µM)	128 µg/mL (≈ 88.3 µM)	–	–	–	–	–	–	–	–

Reference: ChEMBL document CHEMBL4765288, “Synthesis of novel monocarbonyl curcuminoids, evaluation of their efficacy against MRSA, including ex vivo infection model and their mechanistic studies” (Eur J Med Chem, 2020)
